For ten compounds, IC50 results are on record in US11040035B2, “3-oxo-2,6-diphenyl-2,3-dihydropyridazine-4-carboxamides” (BAYER PHARMA AKTIENGESELLSCHAFT, priority 2016, dated 2021).

A value given as a limit tells only on which side of the number the result lay.

In assay [1] the target is T1, AHR (Homo sapiens, UniProt P35869).
T1 sequence (P35869 11-848): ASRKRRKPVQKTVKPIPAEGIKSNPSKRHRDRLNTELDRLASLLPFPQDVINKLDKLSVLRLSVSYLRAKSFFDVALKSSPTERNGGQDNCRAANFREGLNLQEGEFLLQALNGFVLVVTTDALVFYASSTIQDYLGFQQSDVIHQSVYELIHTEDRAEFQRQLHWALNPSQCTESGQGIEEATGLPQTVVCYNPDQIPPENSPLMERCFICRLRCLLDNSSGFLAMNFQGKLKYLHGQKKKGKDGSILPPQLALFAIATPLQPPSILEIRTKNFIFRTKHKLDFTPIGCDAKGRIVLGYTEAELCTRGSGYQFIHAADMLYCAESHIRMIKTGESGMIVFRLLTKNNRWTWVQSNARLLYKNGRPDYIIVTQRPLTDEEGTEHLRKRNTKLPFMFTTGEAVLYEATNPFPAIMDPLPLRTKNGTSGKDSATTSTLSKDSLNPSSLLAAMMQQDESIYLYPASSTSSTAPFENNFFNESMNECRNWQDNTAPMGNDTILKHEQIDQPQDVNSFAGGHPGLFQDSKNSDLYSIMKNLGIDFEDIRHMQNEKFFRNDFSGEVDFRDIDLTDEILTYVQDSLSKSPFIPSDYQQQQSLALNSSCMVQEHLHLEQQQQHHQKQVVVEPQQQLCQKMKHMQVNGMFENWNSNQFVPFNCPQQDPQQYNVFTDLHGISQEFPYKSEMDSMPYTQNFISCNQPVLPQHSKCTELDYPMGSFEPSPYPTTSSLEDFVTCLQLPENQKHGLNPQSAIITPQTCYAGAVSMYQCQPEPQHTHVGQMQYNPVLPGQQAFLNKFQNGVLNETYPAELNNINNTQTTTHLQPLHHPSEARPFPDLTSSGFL
Put plainly: In vitro assay 2: agonism in human cell line (transactivation assay).

In assay [2] the target is T1, AHR. The assay is described as follows: In vitro assay 1: antagonism in human cell line (transactivation assay, kynurenic acid prestimulated). As to conditions: Assay 1: AHR-luc Hum Antagonism IC50 [M], 150 μM kynurenic acid, 20 hours, firefly luciferase.
Method: Transactivation assays were carried out in U87 glioblastoma cells (ATCC) endogenously expressing AHR. In addition the cells were stably transfected with an AHR inducible firefly luciferase reporter gene construct that carried AHR-binding sites (DRE) in its promoter and a renilla reporter gene construct with constitutively active promoter. Kynurenic acid is an endogenous AHR activating ligand and was used to prestimulate test cells prior to testing the antagonistic properties of compounds.
In Vitro Assay 1: Antagonism in Human Cell Line
Cells in medium (tryptophan free RPMI, 1% FCS, 2 mM Glutamine) supplemented with 150 μM kynurenic acid were grown for 20 hours in absence (negative control) or presence of increasing concentrations of test compounds (typical dilutions: 72 pmol/L, 0.25 nmol/L, 0.89 nmol/L; 3.1 nmol/L, 11 nmol/L, 38 nmol/L, 130 nmol/L, 470 nmol/L, 1.6 μmol/L, 5.7 μmol/L and 20 μmol/L in duplicates). As positive inhibition control cells supplemented with 150 μM kynurenic acid were incubated in presence of 5 μM Staurosporin. Normalization was done by positive and negative controls.
Firefly luciferase and Renilla activity was determined by the DualGlo Luciferase Assay System (Promega, #2920).
Setting [3] is: Assay 2: AHR-luc Hum Agonism IC50 [M], no kynurenic acid, 20 hours, firefly luciferase.

As a reminder, the IC50 is the concentration at which inhibition is half-maximal. On to `O=C(NC(CO)C1CCOC1)c1cc(-c2ccc(Cl)cc2)nn(-c2cccc(F)c2)c1=O` (single isomer, unassigned) [Example 42, 6-(4-Chlorophenyl)-2-(3-fluorophenyl)-N-[2-hydroxy-1-(tetrahydrofuran-3-yl)ethyl]-3-oxo-2,3-dihydropyridazine-4-carboxamide], for which the IC50 in assay [1] (read-out: Assay 2: AHR-luc Hum Agonism IC50, no kynurenic acid, 20 hours, firefly luciferase) was over 2e-05 M; in assay [2], 3.44e-07 M.

As for `O=C(N[C@H]1COC[C@@H]1O)c1cc(-c2ccc(Cl)cc2)nn(-c2cccc(F)c2)c1=O` (relative stereo) [Example 134, 6-(4-Chlorophenyl)-2-(3-fluorophenyl)-N-(trans-4-hydroxytetrahydrofuran-3-yl)-3-oxo-2,3-dihydropyridazine-4-carboxamide], the IC50 is over 2e-05 M in assay [1] (setting [3]) and 1.72e-07 M in assay [2].

Regarding `O=C(NCC(O)C1CC1)c1cc(-c2ccc(Cl)cc2)nn(-c2cccc(F)c2)c1=O` (racemic) [Example 190, 6-(4-Chlorophenyl)-N-[(2RS)-2-cyclopropyl-2-hydroxyethyl]-2-(3-fluorophenyl)-3-oxo-2,3-dihydropyridazine-4-carboxamide], the IC50 was over 2e-05 M in assay [1] (setting [3]) and 2.77e-07 M in assay [2].

Turning to `C[C@H](O)CCNC(=O)c1cc(-c2ccc(Cl)cc2)nn(-c2cccc(F)c2)c1=O` [Example 205, (+)-6-(4-Chlorophenyl)-2-(3-fluorophenyl)-N-[(3S)-3-hydroxybutyl]-3-oxo-2,3-dihydropyridazine-4-carboxamide], the IC50 in assay [1] (setting [3]) is over 2e-05 M; in assay [2], 2.12e-07 M.

`O=C(NC(CO)C1CCCO1)c1cc(-c2ccc(C(F)(F)F)cc2)nn(-c2cccc(F)c2)c1=O` (single isomer, unassigned) [Example 339, 1,4-anhydro-2,3,5-trideoxy-5-[({2-(3-fluorophenyl)-3-oxo-6-[4-(trifluoromethyl)phenyl]-2,3-dihydropyridazin-4-yl}carbonyl)amino]hexitol]: the IC50 is over 2e-05 M in assay [1] (setting [3]) and 4.59e-08 M in assay [2].

In the case of `NC(=O)[C@H](CO)NC(=O)c1cc(-c2ccc(Cl)cc2)nn(-c2cccc(F)c2)c1=O` [Example 162, N-[(2S)-1-Amino-3-hydroxy-1-oxopropan-2-yl]-6-(4-chlorophenyl)-2-(3-fluorophenyl)-3-oxo-2,3-dihydropyridazine-4-carboxamide], the IC50 was over 2e-05 M in assay [1] (setting [3]) and 4.83e-07 M in assay [2].

As for `O=C(NC(CO)C(F)(F)F)c1cc(-c2ccc(Cl)cc2)nn(-c2cccc(F)c2)c1=O` (single isomer, unassigned; (-)) [Example 98, (−)-6-(4-Chlorophenyl)-2-(3-fluorophenyl)-3-oxo-N-(1,1,1-trifluoro-3-hydroxypropan-2-yl)-2,3-dihydropyridazine-4-carboxamide], the IC50 in assay [1] (setting [3]) and in assay [2] was over 2e-05 M each time.

In the case of `O=C(NCC1(O)CCOCC1)c1cc(-c2ccc(Cl)cc2)nn(-c2cccc(F)c2)c1=O` [Example 325, 6-(4-chlorophenyl)-2-(3-fluorophenyl)-N-[(4-hydroxytetrahydro-2H-pyran-4-yl)methyl]-3-oxo-2,3-dihydropyridazine-4-carboxamide], the IC50 in assay [1] (setting [3]) is over 2e-05 M; in assay [2] it was 9.65e-08 M.

As for `CN(C)CC(O)CNC(=O)c1cc(-c2ccc(Cl)cc2)nn(-c2cccc(F)c2)c1=O` (racemic) [Example 235, 6-(4-Chlorophenyl)-N-[(2RS)-3-(dimethylamino)-2-hydroxypropyl]-2-(3-fluorophenyl)-3-oxo-2,3-dihydropyridazine-4-carboxamide], the IC50 is over 2e-05 M in assay [1] (setting [3]) and 3e-06 M in assay [2].

For the compound `O=C(NCC1(O)CCCC1)c1cc(-c2ccc(Cl)cc2)nn(-c2cccc(F)c2)c1=O` [Example 326, 6-(4-chlorophenyl)-2-(3-fluorophenyl)-N-[(1-hydroxycyclopentyl)methyl]-3-oxo-2,3-dihydropyridazine-4-carboxamide], the half-maximal inhibitory concentration (IC50) is over 2e-05 M in assay [1] (setting [3]) and 6.47e-08 M in assay [2].
